Data reported in patent US8673325B1, “Cosmetic compositions comprising EPA and salicylic acid and methods of making and using same” (Dignity Sciences Limited, priority 2012, dated 2014).
In brackets after ≈: the same amount, converted by molar mass. Read-outs that look alike come from different tables or passages of the source.

Test system: P. acnes NCTC737
Assay: MIC and MBC against P. acnes by broth micro-dilution (CLSI M11-A5)
Assay type: cell-based
Details: for MIC: anaerobic 37° C., 48 h, lowest concentration preventing visible growth
Protocol: Neomycin (“NEO”) was obtained and used as a 10 mg/mL solution in sterile saline. P. acnes NCTC737 was obtained from the National Collection of Type Cultures (Porton Down, UK). Minimum inhibitory (MIC) and bactericidal (MBC) concentration determinations MICs and MBCs were determined against P. acnes by broth micro-dilution according to protocol M11-A5 published by the Clinical and Laboratory Standards Institute (CLSI, 2001). […] ([…] Workstation; Don Whitley Scientific Ltd., Shipley, UK). Absorbance readings (A600) for the bacterial suspensions were determined and fresh media was used to adjust the inoculums to 1×10^7 CFU/mL. Inoculum sizes were confirmed by diluting in phosphate-buffered saline (PBS) and plating on SBA. Each well was inoculated with 5 μL of bacterial suspension. Negative control wells contained culture medium only, while positive control wells contained media inoculated with bacterial suspension. Further inoculated wells controlled for the antimicrobial effects of the greatest concentration of solvent (DMSO or ethanol) used in any of the test wells (ca. 10%). Microtitre plates were incubated anaerobically at 37° C. for 48 h, and then MICs were determined as the lowest concentration of each compound that prevented visible bacterial growth. MBCs were determined by plating 50 μL from each well showing no visible growth on to SBA and incubating these plates anaerobically at 37° C. for 96 h. […] MICs and MBCs were performed in duplicate.

[1] = Cutibacterium acnes, NCTC737, 48 h, read-out: MIC
[2] = Cutibacterium acnes, NCTC737, lowest concentration that killed >99.9% of the initial inoculum, read-out: MBC

MIC [1] [µg/mL]	MIC [µg/mL]	Structure (SMILES)	MBC (MEC) [µg/mL]	MBC [2] [µg/mL]	MBC (lowest concentration that killed >99.9% of the initial inoculum) [µg/mL]
> 4100	>4096	O=C(O)CCCCCCCC(=O)O [AZA, azelaic acid]	>4096	–	–
64 to 128 (≈ 212 to 423 µM)	128 (≈ 423 µM)	CC/C=C\C/C=C\C/C=C\C/C=C\C/C=C\CCCC(=O)O [EPA, eicosapentaenoic acid]	>4096	> 4100	–
64 to 128 (≈ 230 to 460 µM)	64 (≈ 230 µM)	CCCCC/C=C\C/C=C\C/C=C\CCCCC(=O)O [GLA, gamma-linolenic acid]	>4096	> 4100	–

The remaining lines, values behind:

Structure (SMILES)	MIC [1] [µg/mL]	MIC [µg/mL]	MBC (MEC) [µg/mL]	MBC [2] [µg/mL]	MBC (lowest concentration that killed >99.9% of the initial inoculum) [µg/mL]
O=C(OOC(=O)c1ccccc1)c1ccccc1 [BPO, benzoyl peroxide]	64 (≈ 264 µM)	–	>4096	> 4100	–
NS(=O)(=O)c1cc(C(=O)O)c(NCc2ccco2)cc1Cl [FUS, furosemide]	2 (≈ 6.05 µM)	–	256 (≈ 774 µM)	256 (≈ 774 µM)	–
NC[C@@H]1O[C@H](O[C@H]2[C@@H](O)[C@H](O[C@@H]3[C@@H](O)[C@H](N)C[C@H](N)[C@H]3O[C@H]3O[C@H](CN)[C@@H](O)[C@H](O)[C@H]3N)O[C@@H]2CO)[C@H](N)[C@@H](O)[C@@H]1O [NEO, Neomycin]	–	8 (≈ 13 µM)	16 (≈ 26 µM)	–	16 (≈ 26 µM)
O=C(O)c1ccccc1O [SA, salicylic acid]	64 (≈ 463 µM)	–	>4096	> 4100	–
